The source made the active and inactive calls. The calls are words filed in the database; no cut-off is given here.
Key:
[1] = test system: CWR22R; assay: Antiproliferative activity against human 22Rv1 cells assessed as cell growth inhibition incubated for 4 days by celtiter-glo luminescent assay; details: 22Rv1, 96 h
[2] = test system: VCaP; assay: Antiproliferative activity against human VCaP cells assessed as cell growth inhibition incubated for 4 days by celtiter-glo luminescent assay; details: 96 h
[3] = Volume of distribution at steady state in ICR mouse at 1 mg/kg, iv measured upto 24 hrs by LC/MS-MS analysis; assay type: ADME, organism-based; details: in vivo
[4] = Half life in Sprague-Dawley rat at 3 mg/kg, po measured upto 24 hrs by LC/MS-MS analysis; assay type: ADME, organism-based; details: in vivo
[5] = Oral bioavailability in Sprague-Dawley rat at 3 mg/kg measured upto 24 hrs by LC/MS-MS analysis; assay type: ADME, organism-based; details: in vivo
[6] = Metabolic stability in dog liver microsome assessed as half life measured upto 60 mins in presence of NADPH by LC-MS/MS analysis; assay type: ADME, Canis lupus familiaris; details: liver microsomes
[7] = Metabolic stability in dog plasma assessed as half life measured upto 120 mins by LC-MS/MS analysis; assay type: ADME, cell-free, Canis lupus familiaris
[8] = Metabolic stability in mouse plasma assessed as half life measured upto 120 mins by LC-MS/MS analysis; assay type: ADME, cell-free
[9] = Plasma protein binding in dog by LC-MS analysis; assay type: ADME, cell-free, Canis lupus familiaris; details: read-out: PPB (converted)
[10] = Plasma protein binding in mouse by LC-MS analysis; assay type: ADME, cell-free; details: read-out: PPB (converted)
[11] = molecular target: Voltage-gated inwardly rectifying potassium channel KCNH2 (Homo sapiens, UniProt Q12809); assay: Inhibition of hERG expressed in HEK293 cells; assay type: toxicity, cell-based
[12] = molecular target: T1, Cytochrome P450 1A2 (Homo sapiens, UniProt P05177); assay: Inhibition of CYP1A2 (unknown origin) preincubated with compound for 5 mins followed by NADPH addition and measured after 5 mins by LC-MS/MS analysis; assay type: ADME
T1 sequence (P05177 whole entry): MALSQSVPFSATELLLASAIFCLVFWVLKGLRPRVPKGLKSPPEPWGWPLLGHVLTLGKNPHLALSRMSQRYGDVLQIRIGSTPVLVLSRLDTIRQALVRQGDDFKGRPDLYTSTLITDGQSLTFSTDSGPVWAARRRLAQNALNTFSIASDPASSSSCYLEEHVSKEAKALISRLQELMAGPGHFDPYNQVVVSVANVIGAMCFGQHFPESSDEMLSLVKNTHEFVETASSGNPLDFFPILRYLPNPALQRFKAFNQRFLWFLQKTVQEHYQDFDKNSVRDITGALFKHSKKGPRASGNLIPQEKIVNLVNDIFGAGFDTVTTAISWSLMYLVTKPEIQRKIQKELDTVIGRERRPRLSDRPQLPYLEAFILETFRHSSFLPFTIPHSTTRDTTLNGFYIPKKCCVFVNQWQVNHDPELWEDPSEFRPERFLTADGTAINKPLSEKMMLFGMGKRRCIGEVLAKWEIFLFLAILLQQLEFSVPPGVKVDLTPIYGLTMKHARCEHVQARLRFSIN

[13] = molecular target: Cytochrome P450 3A4 (Homo sapiens, UniProt P08684); assay: Inhibition of CYP3A4 (unknown origin) using midazolam as substrate preincubated with compound for 5 mins followed by NADPH addition and measured after 20 mins by LC-MS/MS analysis; assay type: ADME
[14] = Drug distribution in SCID mouse tumor at 1 mg/kg, po measured at 1 hr by LC-MS/MS analysis; assay type: ADME, organism-based, Neoplasm; details: read-out: Ct
[15] = Drug distribution in SCID mouse tumor at 1 mg/kg, po measured at 6 hrs by LC-MS/MS analysis; assay type: ADME, organism-based, Neoplasm; details: read-out: Ct
[16] = Drug distribution in SCID mouse tumor at 3 mg/kg, po measured at 24 hrs by LC-MS/MS analysis; assay type: ADME, organism-based, Neoplasm; details: read-out: Ct
[17] = Drug distribution in SCID mouse liver at 1 mg/kg, po measured at 1 hr by LC-MS/MS analysis; assay type: ADME, organism-based; details: read-out: Ct
[18] = Drug distribution in SCID mouse liver at 1 mg/kg, po measured at 24 hrs by LC-MS/MS analysis; assay type: ADME, organism-based; details: read-out: Ct
[19] = Drug distribution in SCID mouse liver at 3 mg/kg, po measured at 6 hrs by LC-MS/MS analysis; assay type: ADME, organism-based; details: read-out: Ct
[20] = Drug distribution in SCID mouse spleen at 1 mg/kg, po measured at 1 hr by LC-MS/MS analysis; assay type: ADME, organism-based; details: read-out: Ct
[21] = Drug distribution in SCID mouse spleen at 3 mg/kg, po measured at 1 hr by LC-MS/MS analysis; assay type: ADME, organism-based; details: read-out: Ct
[22] = Drug distribution in SCID mouse spleen at 3 mg/kg, po measured at 24 hrs by LC-MS/MS analysis; assay type: ADME, organism-based; details: read-out: Ct
[23] = test system: CWR22R; assay: Antitumor activity against human 22Rv1 cells xenografted in SCID mouse assessed as reduction in BRD4 level in tumor at 1 to 3 mg/kg, po measured at 6 to 24 hrs by Western blotting analysis; assay type: functional, organism-based; details: dose 1-3 mg/kg, time 6-24 hrs
[24] = test system: VCaP; assay: Antitumor activity against human VCaP cells xenografted in SCID mouse assessed as tumor growth inhibition at 0.3 mg/kg, po administered daily 5 times a week for 4 weeks; assay type: functional; details: 672 h, read-out: TGI
[25] = test system: CWR22R; assay: Antitumor activity against human 22Rv1 cells xenografted in SCID mouse assessed as tumor growth inhibition at 0.3 mg/kg, po administered 5 times a week for 3 weeks; assay type: functional; details: 22Rv1, 504 h, read-out: TGI
[26] = test system: CWR22R; assay: Antitumor activity against human 22Rv1 cells xenografted in SCID mouse assessed as tumor growth inhibition at 1 mg/kg, po administered 5 times a week for 3 weeks; assay type: functional; details: 22Rv1, 504 h, read-out: TGI
[27] = Toxicity in female BALB/c mouse assessed as body weight loss at 30 mg/kg, po administered twice a week for 5 to 6 weeks; assay type: organism-based; details: in vivo, time 5-6 weeks
[28] = Drug distribution in Sprague-Dawley rat plasma at 3 mg/kg, po measured at 24 hrs by LC-MS/MS analysis; assay type: ADME, organism-based
[29] = Drug distribution in Sprague-Dawley rat plasma at 10 mg/kg, po measured at 1 hr by LC-MS/MS analysis; assay type: ADME, organism-based
[30] = Drug distribution in Sprague-Dawley rat kidney at 3 mg/kg, po measured at 24 hrs by LC-MS/MS analysis; assay type: ADME, organism-based; details: read-out: Ct
[31] = Drug distribution in Sprague-Dawley rat liver at 10 mg/kg, po measured at 1 hr by LC-MS/MS analysis; assay type: ADME, organism-based; details: read-out: Ct
[32] = Drug distribution in Sprague-Dawley rat heart at 3 mg/kg, po measured at 1 hr by LC-MS/MS analysis; assay type: ADME, organism-based; details: read-out: Ct
[33] = Drug distribution in Sprague-Dawley rat heart at 10 mg/kg, po measured at 1 hr by LC-MS/MS analysis; assay type: ADME, organism-based; details: read-out: Ct
[34] = Drug distribution in Sprague-Dawley rat heart at 10 mg/kg, po measured at 6 hrs by LC-MS/MS analysis; assay type: ADME, organism-based; details: read-out: Ct
[35] = Toxicity in immune-competent Sprague-Dawley rat assessed as change in alkaline phosphatase level at 1 to 10 mg/kg, po administered twice a week for 5 weeks; assay type: organism-based; details: in vivo, 840 h, dose 1-10 mg/kg
[36] = Toxicity in immune-competent Sprague-Dawley rat assessed as change in albumin level at 1 to 10 mg/kg, po administered twice a week for 5 weeks; assay type: organism-based; details: in vivo, 840 h, dose 1-10 mg/kg

Cytochrome P450 3A4, sequence (P08684 whole entry): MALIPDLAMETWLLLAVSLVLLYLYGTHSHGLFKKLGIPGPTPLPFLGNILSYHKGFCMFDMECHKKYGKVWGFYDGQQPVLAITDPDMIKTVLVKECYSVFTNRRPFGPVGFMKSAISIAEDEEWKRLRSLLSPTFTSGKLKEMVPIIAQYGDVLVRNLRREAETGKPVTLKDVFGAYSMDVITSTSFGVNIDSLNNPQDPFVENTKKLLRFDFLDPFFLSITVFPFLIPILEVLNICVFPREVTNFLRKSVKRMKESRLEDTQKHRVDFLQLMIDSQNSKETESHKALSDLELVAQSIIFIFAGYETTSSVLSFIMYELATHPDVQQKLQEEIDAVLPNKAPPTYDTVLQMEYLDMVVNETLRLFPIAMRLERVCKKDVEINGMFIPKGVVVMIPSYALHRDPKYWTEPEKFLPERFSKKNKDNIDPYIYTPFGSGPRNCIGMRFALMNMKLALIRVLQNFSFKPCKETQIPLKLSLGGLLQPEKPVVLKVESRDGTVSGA
Voltage-gated inwardly rectifying potassium channel KCNH2, sequence (Q12809 whole entry): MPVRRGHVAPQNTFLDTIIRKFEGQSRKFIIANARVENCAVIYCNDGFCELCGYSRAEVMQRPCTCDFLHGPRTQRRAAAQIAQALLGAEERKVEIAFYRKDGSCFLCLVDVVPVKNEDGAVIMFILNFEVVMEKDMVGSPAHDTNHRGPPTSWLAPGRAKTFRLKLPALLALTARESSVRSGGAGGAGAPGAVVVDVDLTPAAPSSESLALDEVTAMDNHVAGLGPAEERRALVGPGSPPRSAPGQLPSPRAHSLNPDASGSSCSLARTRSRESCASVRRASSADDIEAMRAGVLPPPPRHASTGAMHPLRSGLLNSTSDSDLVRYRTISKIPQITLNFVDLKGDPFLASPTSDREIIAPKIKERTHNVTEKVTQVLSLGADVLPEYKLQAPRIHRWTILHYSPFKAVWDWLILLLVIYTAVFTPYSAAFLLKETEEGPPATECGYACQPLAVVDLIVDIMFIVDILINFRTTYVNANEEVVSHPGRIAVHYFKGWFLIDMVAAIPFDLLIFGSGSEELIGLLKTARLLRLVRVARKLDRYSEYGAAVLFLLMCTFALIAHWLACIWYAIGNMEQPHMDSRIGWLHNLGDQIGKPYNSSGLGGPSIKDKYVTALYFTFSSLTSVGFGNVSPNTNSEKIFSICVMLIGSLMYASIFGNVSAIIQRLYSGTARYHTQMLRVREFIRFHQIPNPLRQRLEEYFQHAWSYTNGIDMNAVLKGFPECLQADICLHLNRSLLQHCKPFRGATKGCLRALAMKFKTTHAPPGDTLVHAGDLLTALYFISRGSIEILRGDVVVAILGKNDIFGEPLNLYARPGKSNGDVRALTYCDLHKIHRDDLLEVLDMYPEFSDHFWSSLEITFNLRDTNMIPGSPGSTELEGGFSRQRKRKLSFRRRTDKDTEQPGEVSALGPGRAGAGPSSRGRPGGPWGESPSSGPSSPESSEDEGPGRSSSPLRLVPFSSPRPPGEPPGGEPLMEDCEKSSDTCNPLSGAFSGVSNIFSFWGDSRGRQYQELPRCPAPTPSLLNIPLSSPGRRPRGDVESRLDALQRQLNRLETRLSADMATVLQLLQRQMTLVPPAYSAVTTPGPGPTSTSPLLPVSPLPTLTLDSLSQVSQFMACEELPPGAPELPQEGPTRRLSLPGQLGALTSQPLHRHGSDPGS

## CC(=O)N1CCc2c(c(N3CCCc4cc(-c5cnn(C)c5)c(C(F)F)cc43)nn2[C@H]2CC[C@H](CN3Cc4cc5c(cc4C3)C(=O)N(C3CCC(=O)NC3=O)C5=O)CC2)C1 (stereo partly specified)
[1]
  IC50: 3.7 nM
[2]
  IC50: 4.6 nM
[3]
  Vdss: 4.9 L/kg
[4]
  half-life: 1.3 h
[5]
  bioavailability: 67%
[6]
  half-life: 0.817 h
[7]
  half-life: 1.3 h
[8]
  half-life: > 2 h
[9]
  fraction unbound: 0.009
[10]
  fraction unbound: 0.016
[11]
  IC50: > 30000 nM
[12]
  IC50: > 10000 nM
[13]
  IC50: > 10000 nM
[14]
  concentration at 1 h: 155 ng/g
[15]
  concentration at 6 h: 64.3 ng/g
[16]
  concentration at 24 h: 12 ng/mL
[17]
  concentration at 1 h: 1640 ng/mL
[18]
  concentration at 24 h: 13.7 ng/mL
[19]
  concentration at 6 h: 1750 ng/mL
[20]
  concentration at 1 h: 146 ng/mL
[21]
  concentration at 1 h: 937 ng/mL
[22]
  concentration at 24 h: 21.2 ng/mL
[23]
  Activity: Active
[24]
  inhibition in vivo at 0.3 mg/kg: 84%
[25]
  inhibition in vivo at 0.3 mg/kg: 56%
[26]
  inhibition in vivo at 1 mg/kg: 75%
[27]
  Activity: < 5%
[28]
  concentration at 24 h: 1.3 ng/mL
[29]
  concentration at 1 h: 321 ng/mL
[30]
  concentration at 24 h: 2.1 ng/g
[31]
  concentration at 1 h: 4100 ng/g
[32]
  concentration at 1 h: 246 ng/g
[33]
  concentration at 1 h: 638 ng/g
[34]
  concentration at 6 h: 83 ng/g
[35]
  Activity: Non-Toxic
[36]
  Activity: Non-Toxic

Source: ChEMBL document CHEMBL5543112, “Discovery of CBPD-268 as an Exceptionally Potent and Orally Efficacious CBP/p300 PROTAC Degrader Capable of Achieving Tumor Regression” (J Med Chem, 2024)
